Assay: xn = mol fraction of the nth substance listed
Settings: Fluid (supercritical or subcritical phases), vibrating tube

CCCCCO [pentan-1-ol] + O=C=O
Settings | mass density [kg/m3]
362.66 K, 13063 kPa, x2 = 0.0816 | 774.24
362.66 K, 14005 kPa, x2 = 0.0816 | 775.13
362.66 K, 15014 kPa, x2 = 0.0816 | 776.09
362.66 K, 16024 kPa, x2 = 0.9216 | 573.29
362.66 K, 16035 kPa, x2 = 0.0816 | 777.05
362.66 K, 17029 kPa, x2 = 0.0816 | 777.98
362.66 K, 17029 kPa, x2 = 0.9216 | 602.35
362.66 K, 18005 kPa, x2 = 0.0816 | 778.87
362.66 K, 18035 kPa, x2 = 0.9216 | 625.49
362.66 K, 19005 kPa, x2 = 0.9216 | 644.28
362.66 K, 19061 kPa, x2 = 0.0816 | 779.82
362.66 K, 19993 kPa, x2 = 0.0816 | 780.66
362.66 K, 20065 kPa, x2 = 0.9216 | 661.85
362.66 K, 21022 kPa, x2 = 0.0816 | 781.57
362.66 K, 21055 kPa, x2 = 0.9216 | 676.21
362.66 K, 22016 kPa, x2 = 0.9216 | 688.72
362.66 K, 22027 kPa, x2 = 0.0816 | 782.43
362.66 K, 23003 kPa, x2 = 0.0816 | 783.28
362.66 K, 23071 kPa, x2 = 0.9216 | 701.08
362.66 K, 23748 kPa, x2 = 0.9216 | 708.43
362.66 K, 23994 kPa, x2 = 0.0816 | 784.14
362.66 K, 25028 kPa, x2 = 0.0816 | 785.05
362.67 K, 16036 kPa, x2 = 0.7274 | 743.56
362.67 K, 17030 kPa, x2 = 0.7274 | 749.82
362.67 K, 18000 kPa, x2 = 0.7274 | 755.36
362.67 K, 19028 kPa, x2 = 0.7274 | 760.67
362.67 K, 20033 kPa, x2 = 0.7274 | 765.6
362.67 K, 21074 kPa, x2 = 0.7274 | 770.32
362.67 K, 22015 kPa, x2 = 0.7274 | 774.34
362.67 K, 23077 kPa, x2 = 0.7274 | 778.68
362.67 K, 24033 kPa, x2 = 0.7274 | 782.39
362.67 K, 25155 kPa, x2 = 0.7274 | 786.55
362.76 K, 15032 kPa, x2 = 0.6054 | 774.3
362.76 K, 16035 kPa, x2 = 0.6054 | 777.11
362.76 K, 17040 kPa, x2 = 0.6054 | 779.89
362.76 K, 18044 kPa, x2 = 0.6054 | 782.5
362.76 K, 19042 kPa, x2 = 0.6054 | 785.04
362.76 K, 20068 kPa, x2 = 0.6054 | 787.6
362.76 K, 21079 kPa, x2 = 0.6054 | 790.03
362.76 K, 22029 kPa, x2 = 0.6054 | 792.27
362.76 K, 23044 kPa, x2 = 0.6054 | 794.59
362.76 K, 24071 kPa, x2 = 0.6054 | 796.88
362.76 K, 25065 kPa, x2 = 0.6054 | 799.05
362.79 K, 7017 kPa, x2 = 0.1347 | 768.35
362.79 K, 7974 kPa, x2 = 0.1347 | 769.41
362.79 K, 9023 kPa, x2 = 0.1347 | 770.53
362.79 K, 9999 kPa, x2 = 0.1347 | 771.53
362.79 K, 10899 kPa, x2 = 0.1347 | 772.5
362.79 K, 12022 kPa, x2 = 0.1347 | 773.68
362.79 K, 13018 kPa, x2 = 0.1347 | 774.7
362.79 K, 14016 kPa, x2 = 0.1347 | 775.72
362.79 K, 15031 kPa, x2 = 0.1347 | 776.75
362.79 K, 16022 kPa, x2 = 0.1347 | 777.7
362.79 K, 17016 kPa, x2 = 0.1347 | 778.71
362.79 K, 18017 kPa, x2 = 0.1347 | 779.67
362.79 K, 19013 kPa, x2 = 0.1347 | 780.6
362.79 K, 20017 kPa, x2 = 0.1347 | 781.57
362.79 K, 21040 kPa, x2 = 0.1347 | 782.53
362.79 K, 22011 kPa, x2 = 0.1347 | 783.41
362.79 K, 23022 kPa, x2 = 0.1347 | 784.34
362.79 K, 24039 kPa, x2 = 0.1347 | 785.29
362.79 K, 25030 kPa, x2 = 0.1347 | 786.19

From the NIST ThermoML archive (doi:10.1016/j.jct.2007.07.005)
